US4894453A, “2-substituted alkoxy-3-substituted-pyrazines” (Toyo Jozo Kabushiki Kaisha, priority 1986, dated 1990)

What was measured:
[1] = tested on: PAF-induced aggregation (rabbit platelet plasma); assay: Platelet aggregation inhibitory action on PAF-induced aggregation; assay type: cell-based; conditions: Oryctolagus cuniculus, 0.05 h, PAF 10-50 μg/ml, 37° C., 3 min incubation, hydrochloride salt, read-out: inhibition ratio, PAF-induced platelet aggregation
[2] = tested on: blood flow, femoral artery / left back limb; assay: Vasodilation activity, changes in blood flow in perfused left back limb of anesthetized dog; assay type: in vivo; conditions: 100 μg into right femoral artery; relative to increased blood flow by 30 μg papaverin intra-arterially = 100%; hydrochloride salt
Protocol: (§1) The pharmacological activity of the present compounds [1] is illustrated below. All the compounds [1] used in the pharmacological tests were tested in the form of the hydrochloride salt thereof.
2. Vasodilation activity:
A dog, pretreated with morphine (1.5 mg/kg, sc) is anesthesized with urethane (450 mg/kg, iv) and α-chloralose (45 mg/kg, iv), and immobilized in the dosal position. Right femoral arterial blood is introduced into a left femoral artery via a perfusion pump, and Sterling's resistance is connected to the exosomatic circulatory system to perfuse blood to a left back limb at constant pressure. The perfusion pressure is set at a value slightly higher than that of the average blood pressure of the animal. Sample (100 μg) dissolved in physiological saline solution is administered to a right femoral artery, and changes in blood flow are measured. Vasodilation activity is measured as a relative activity, by defining as 100% the increased rate of blood flow when 30 μg papaverin is administered intra-arterially. The results are shown in Table 5, where it will be seen that the compounds [1] of the present invention have strong vasodilation activity.

[3] = tested on: PAF-induced aggregation (rabbit platelet plasma); assay: Platelet aggregation inhibitory action on PAF-induced aggregation; assay type: cell-based; conditions: Oryctolagus cuniculus, 0.05 h, PAF 10-50 μg/ml, 37° C., 3 min incubation, hydrochloride salt, read-out: inhibition ratio, PAF-induced platelet aggregation; remark: listed apart in the source
Protocol: as §1
(§2) 1. Platelet aggregation inhibition:
(§3) Sample solution containing a compound [1] (final concentration 500 or 100 μM) is added to rabbit platelet plasma to which was added 10% by volume of a 3.8% sodium citrate solution, and the mixture is incubated at 37° C. for 3 minutes. A platelet activation factor (PAF, final concentration 10-50 μg/ml) or collagen (final concentration 2.5 μg/ml) is added thereto as an aggregating agent, and platelet aggregation activity is measured with an aggregometer. The results of assays for PAF-induced aggregation are shown in Table 3, and those for collagen-induced aggregation are shown in Table 4, which tables show the strong platelet aggregation inhibitory activity of the compounds [1] of the present invention.

[4] = tested on: collagen-induced aggregation (rabbit platelet plasma); assay: Platelet aggregation inhibitory action on collagen-induced aggregation; assay type: cell-based; conditions: Oryctolagus cuniculus, 0.05 h, collagen 2.5 μg/ml, 37° C., 3 min incubation, hydrochloride salt, read-out: inhibition ratio, collagen-induced platelet aggregation
Protocol: as §1, §2, §3

[5] = tested on: lipoperoxide generation in rat cerebrum; assay: Antioxidant activity (inhibition of lipoperoxide generation, method of Stocks et al.); assay type: biochemical; conditions: 100 μM; rat cerebrum supernatant, 37° C., 15 min, thiobarbituric acid, 532 nm; hydrochloride salt
Protocol: as §1
Antioxidant activity is determined according to the method of Stocks et al. [Clin. Sci. Mol. Med., 47: 215 (1974)]. Rat cerebrum is added to ice-cooled 40 mM phosphate saline buffer solution (PBS) (pH 7.4, 4 ml buffer per 1 g cerebrum), homogenized and centrifuged (1000×g, 4° C., 10 min.) to obtain a supernatant solution. The supernatant solution is diluted fivefold with the above ice-cooled PBS solution, and to a 0.9 ml aliquot thereof is added a sample containing a compound [1] (0.1 ml, final concentration 100 μM) dissolved in ethanol. The resultant mixture is incubated at 37° C. for 15 minutes, 35% perchloric acid (0.2 ml) is added, and the mixture is ice-cooled to stop the reaction and centrifuged (1300×g, 4° C., 10 min.). 0.5 ml thiobarbituric acid (5 g/lit. of 50% acetic acid) is added to the supernatant solution (1 ml), so as to measure its absorbancy at 532 nm. The amount of lipoperoxide thus generated is expressed as an amount of malondialdehyde.

| Compound | inhibition at 300 µM [1] | vasodilation activity [2] | inhibition at 500 µM ([3]; 500 μM) | inhibition at 100 µM [3] | inhibition at 100 µM [4] | inhibition ratio, lipoperoxide generation (antioxidant activity) [5] |
| --- | --- | --- | --- | --- | --- | --- |
| Cc1nc(C)c(OCC(=O)N2CCCCC2)nc1C [Compound 067] | 53% |  |  |  |  |  |
| Cc1nc(C)c(OCC(=O)N2CCOCC2)nc1C [Compound 075] |  | 89% |  |  |  |  |
| Cc1nc(C)c(OCC(=O)NCCN2CCN(Cc3ccc(Cl)cc3)CC2)nc1C [Compound 135] |  | 242% | 77% |  |  |  |
| Cc1nc(C)c(OCC(=O)NCCN2CCN(Cc3ccccc3)CC2)nc1C [Compound 136] |  | 204% |  | 50% |  |  |
| Cc1nc(C)c(OCC(=O)NCCN2CCN(Cc3ccccc3Cl)CC2)nc1C [Compound 137] |  | 216% |  | 76% |  |  |
| CCc1nc(OCCN2CCCCC2)c(C(C)C)nc1CC [Compound 550] |  |  |  | 56% | 85% |  |
| CCc1nc(CC(C)C)c(OCCN2CCN(Cc3ccccc3)CC2)nc1CC [Compound 556] |  |  |  | 51% | 40% |  |
| CCCCCCCCc1nc2c(nc1OCCN1CCN(CCCC)CC1)CCCC2 [Compound 573] |  |  |  | 86% | 58% | 56% |
| CCCCCCCCCc1nc2c(nc1OCCN1CCN(CCCC)CC1)CCCC2 [Compound 580] |  |  |  | 94% | 80% | 77% |
| CCCCCCCCCCc1nc2c(nc1OCCN1CCOCC1)CCCC2 [Compound 585] |  |  |  |  | 41% | 62% |
| CCCCCCCCCCc1nc2c(nc1OCCN1CCN(CCCC)CC1)CCCC2 [Compound 587] |  |  |  | 91% | 79% | 65% |
| CCCCCCCCCCc1nc2c(nc1OCCN1CCN(CCO)CC1)CCCC2 [Compound 588] |  |  |  | 64% | 78% | 65% |
